According to patent US4440772A, “Acid addition salts of dextrorotatory ergot alkaloids, a process for the preparation thereof as well as their use as medicines” (priority 1978, dated 1984):

Experiments:
[1] = established for known ergot alkaloids; cited from earlier work
[2] = test system: smooth muscles of blood vessels; test: effect on blood pressure drop in rats with cut spinal cord; assay type: in vivo, rats (variety Wistar); details: for vasoconstrictory effect: contraction of smooth muscles of blood vessels; for long-duration hypertension (effect in words): 4.5 mg/kg of body weight
Excerpt: Rats (variety Wistar) in urethane narcosis were cut their spinal cord in the region of the second cervical vertebra and connected to an artificial breathing apparatus (B. Melsungen). By this intervention the central regulation of blood pressure was eliminated. In so treated animals blood pressure dropped for about 50 mm Hg. The experiment was supposed to show whether the examined substances directly affected the smooth muscles of blood vessels.

[3] = test system: spontaneously hypertensive rats; test: effect on arterial pressure of spontaneously hypertensive rats; assay type: in vivo, rats (variety Okamoto Aoki F32); details: spontaneously hypertensive rats, 50 mcg/kg intraperitoneally
Method: For the experiment groups of 10 spontaneously hypertensive rats (variety Okamoto Aoki F32) of both sexes, weighing from 200 to 250 g, were used. The acid addition salts of said dextrorotatory ergot alkaloids were administered intraperitoneally in doses of 50 mcg/kg of body weight and systolic blood pressure was measured on the rats' tails by means of plethysmographic method (K. Okamoto and K. Aoki, Jap. Circulat. J. 27, 1963, 282).

[4] = test system: isolated heart of a guinea pig; test: effect on isolated heart of a guinea pig, modified Langendorff's method; details: isolated heart of guinea pig
Excerpt: The effect of dextrorotatory ergot alkaloids according to the invention on heart in vitro was examined on isolated heart of a guinea pig by the modified Langendorff's method (Zalar et al., Poll. Chim. Farmac. 114, 1975, 146). Alkaloids were infused by an apparatus for slow infusion (B. Melsungen).

heart in situ = test: effect on heart in situ in rats; assay type: in vivo; details: slow infusion
Method: The effect of ergotaminine, ergosinine and ergocrystinine on heart in situ was examined in rats. The thorax of narcotized rats (0.7 ml of 25% urethane solution per 100 g of the body weight, administered subcutaneously) was opened. The heart was placed into a special basket with a balloon, which was connected over a polyethylene cannula to a transducer "Mini Pressure Transducer--Beckmann" and dynograph Beckmann. As the left wall of the ventricle leant against the balloon, the contraction of the ventricle could be recorded. Over a tracheal tube the rats were connected to an artificial breathing apparatus.

[5] = test system: arrhythmias induced by adrenalin; test: effect on arrhythmia induced by adrenalin; assay type: in vivo; details: guinea pigs, arrhythmias induced by adrenalin
Method: For experiments, guinea pigs of both sexes, weighing from 400 to 550 g, were used. The narcotized animals (urethane 1.6 g/kg of body weight, intraperitoneally) were at first intravenously administered adrenalin (0.02 mg/kg) and then dextrorotatory ergot alkaloids. 1 hour and 1.5 hours after the administration of dextrorotatory ergot alkaloids, adrenalin was again administered intravenously (0.02 mg/kg) and the presence as well as duration of arrhythmias was ascertained.

[6] = test system: alpha-adrenergic receivers of the dilatating pupil muscle; test: effect on the function of the pupil (mydriatic effect, Polewka's method); assay type: in vivo; details: 5 mg/kg intravenously, mouse
Method: The phenomenon of mydriasis induced by ergot alkaloids results from the stimulation of alpha-adrenergic receivers of the dilatating pupil muscle (Z. Votava et al., Arch. int. Pharmacodin. 45, 1958, 114).
The mydriatic effect of dextrorotatory ergot alkaloids administered intravenously was determined with a monocular measuring magnifying glass by Polewka's method (A. R. Turner, Screening Methods in Pharmacology, 1965, p. 174 ff.).
The size of the pupil was measured at first before the administration of the substance and then 15, 30 and 60 minutes after intravenous administration of alkaloids into the mouse tail (dose 5 mg/kg of body weight).

[7] = literature comparison; cited from earlier work

Row | Structure (SMILES) | heart action (bradycardia) [1] | duration of long-duration hypertension ([2]; acid addition salts, 1.5 mg/kg of body weight) | vasoconstrictory effect [2] | effect on systolic blood pressure (in words) [3] | effect on isolated heart (in words) [4] | increase of the strength of heart contraction (heart in situ; 250 mcg/kg intravenously) | increase of the strength of heart contraction (heart in situ; 300 mcg/kg intravenously) | long-duration hypertension (effect in words) [2] | effect on the strength of heart contraction (in words) [4] | effect on duration of arrhythmia (in words) [5] | mydriatic effect (in words) [6] | vasoconstrictory effect [7]
1 | CN1C[C@H](C(=O)N[C@]2(C)O[C@@]3(O)[C@@H]4CCCN4C(=O)[C@H](Cc4ccccc4)N3C2=O)C=C2c3cccc4[nH]cc(c34)C[C@H]21 [ergotamine] | bradycardia |  |  |  |  |  |  |  |  |  |  | 
2 | CN1C[C@@H](C(=O)N[C@]2(C)O[C@@]3(O)[C@@H]4CCCN4C(=O)[C@H](Cc4ccccc4)N3C2=O)C=C2c3cccc4[nH]cc(c34)C[C@H]21 [ergotaminine] |  | more than 60 minutes | vasoconstrictory effect | strongest effect | qualitatively similar to that of ergotamine, ergosine and dihydroergotamine | 15% | 30% |  |  |  |  | 
3 | CC(C)C[C@H]1C(=O)N2CCC[C@H]2[C@]2(O)O[C@@](C)(NC(=O)[C@H]3C=C4c5cccc6[nH]cc(c56)C[C@H]4N(C)C3)C(=O)N12 [ergosinine] |  |  | vasoconstrictory effect | strongest effect | qualitatively similar to that of ergotamine, ergosine and dihydroergotamine | 15% | 30% | The same effect | quantitatively greater effect on the strength of heart contraction | most efficiently shortened | strongest mydriatic effect | 
4 | CC(C)[C@@]1(NC(=O)[C@H]2C=C3c4cccc5[nH]cc(c45)C[C@H]3N(C)C2)O[C@@]2(O)[C@@H]3CCCN3C(=O)[C@H](Cc3ccccc3)N2C1=O [ergocristinine] |  |  |  |  |  | 15% | 30% | no effect |  |  |  | 
5 | CN1C[C@H](C(=O)N[C@]2(C)O[C@@]3(O)[C@@H]4CCCN4C(=O)[C@H](Cc4ccccc4)N3C2=O)C[C@@H]2c3cccc4[nH]cc(c34)C[C@H]21 [dihydroergotamine] | bradycardia |  |  |  |  |  |  |  |  |  |  | vasoconstrictory effect
